Experimental data taken from publication PMC7616177, “From structure to clinic: Design of a muscarinic M1 receptor agonist with the potential to treat Alzheimer’s disease” (Cell, 2021).

Columns and labels:
[1] = biological target: T1, human M5-receptor (Homo sapiens, UniProt P08912); assay: M5-receptor functional agonist assay; assay type: cell-based
T1 construct: expressed in transfected cells; host or cells: not described

[2] = biological target: T2, M3-receptor (Homo sapiens, UniProt P20309); assay: [3H]-NMS equilibrium radioligand binding, M3
T2 construct: expressed in transfected cells
Procedure: Non-specific binding (NSB) was determined in the presence of 1 μM atropine). Reactions were terminated by rapid filtration onto GF/B filter paper (Whatman, Maidstone, UK) and three washes with 3 mL ice-cold 0.9% NaCl using a Brandel harvester (M-24TI; Brandel, Fort Lauderdale, FL). Membrane bound radioactivity was determined by liquid scintillation (Ultima Gold; PerkinElmer) counting.
Data was analyzed using PRISM (GraphPad). For saturation binding, non-specific and total binding data were analyzed to a one site binding model. DPM was converted to fmol/mg to compare across constructs. […] […] The Cheng Prusoff equation was used to estimate pKi ([Cheng and Prusoff, 1973]).

[3] = biological target: T3, M1-receptor (Gq/11 protein-coupling) in cortical membranes (Mus musculus, UniProt P12657); assay: [35S]-GTPγS binding / Gq/11 protein-coupling in mouse cortical membranes; assay type: biochemical
T3 construct: Wild-type or M1-KO mice ([Bradley et al., 2017]) (8-12 weeks) were humanely killed and cortical tissue was dissected on ice; from tissue; host or cells: mouse cortex membranes
T3 sequence (P12657 1-460): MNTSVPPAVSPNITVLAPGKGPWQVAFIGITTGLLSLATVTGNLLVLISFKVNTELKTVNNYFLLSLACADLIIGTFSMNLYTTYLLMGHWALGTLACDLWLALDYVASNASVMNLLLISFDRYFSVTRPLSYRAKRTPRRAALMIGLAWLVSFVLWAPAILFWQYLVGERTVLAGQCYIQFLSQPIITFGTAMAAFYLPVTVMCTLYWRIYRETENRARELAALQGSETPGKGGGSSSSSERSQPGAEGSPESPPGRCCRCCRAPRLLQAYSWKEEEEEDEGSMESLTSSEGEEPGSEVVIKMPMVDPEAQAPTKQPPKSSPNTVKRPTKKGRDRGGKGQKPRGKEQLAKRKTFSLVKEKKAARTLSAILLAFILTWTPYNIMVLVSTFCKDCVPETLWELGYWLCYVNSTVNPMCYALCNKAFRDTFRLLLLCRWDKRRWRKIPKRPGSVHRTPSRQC
Procedure: Wild-type or M1-KO mice ([Bradley et al., 2017]) (8-12 weeks) were humanely killed and cortical tissue was dissected on ice. Tissue was suspended in ice-cold buffer A (containing 0.9% (w/v) NaCl, 10 mM HEPES, 0.2% (w/v) EDTA, pH 7.4) and homogenized (4 ×5s bursts) using a Polytron homogenizer. The suspension was centrifuged at 200 xg for 5 min at 4°C using an Eppendorf 5810R bench-top centrifuge. Supernatants were collected and re-homogenized as above. The suspension was subsequently centrifuged for 20 min at 40,000 xg at 4°C using a Beckman Coulter Avanti JXN-26 centrifuge with a JA-25.25 rotor. Supernatant was discarded, and the pellet was re-suspended in 10 mL ice-cold buffer B (10 mM HEPES, 10 mM EDTA, pH 7.4). The pellet was homogenized, GTP (1 mM final) was added and the suspension was incubated at 37° C for 15 min. The suspension was subsequently centrifuged for 20 min at 40,000 xg at 4°C and the pellet was re-suspended in 15 mL ice-cold buffer C (10 mM HEPES, 0.1 mM EDTA, pH 7.4) and re-homogenized as before. Suspension was centrifuged again for 20 min at 40,000 xg at 4°C. The final pellet was re-suspended in buffer C and protein concentration was estimated using a Bradford assay and this resuspended homogenate further diluted in buffer C to produce a concentration of 2 mg/mL. This preparation is the membrane preparation used in the [^35S]-GTPγS binding assay described below.
[^35S]-GTPγS binding and immunoprecipitation of Gα subunits was performed as previously described ([Bradley et al., 2017]). Specifically, wild-type or M1-KO membranes were diluted in assay buffer (in mM: HEPES, 10; NaCI, 100; MgCl2, 10; pH 7.4) containing a final concentration of 1 μM GDP. Membranes (75 μg in a total assay volume of […]) were added to [^35S]-GTPγS (1 μM final concentration) and agonists (CCh or CNO) and incubated at 30°C for 5 min. Reactions were terminated by the addition of 1 mL ice-cold assay buffer and immediate transfer to an ice bath. […] Recovered beads were then mixed with 1 mL FloScint-IV scintillation cocktail and counted by liquid scintillation spectrometry.

[4] = First-time-in-human single ascending dose safety; assay type: in vivo; conditions: plasma, oral, 175 mg; human SAD; read-out: Cmax at which cholinergic side effects were recorded
Text: (§1) HTL9936 was progressed into a randomized, double blind, placebo controlled, first time-in-human (FTIH) ascending single and multiple oral dose study in healthy young adult male volunteers and healthy elderly male and female volunteers. (ClinicalTrials.gov Identifier: NCT02291783).
(§2) The required amount of sterile solution was subsequently injected into the infusion bag containing sodium chloride 0.9%w/v infusion fluid to provide the required dose for IV administration.

[5] = system: healthy volunteers; assay: First-time-in-human single ascending dose safety; assay type: in vivo
Text: as §1, §2

[6] = system: rats; assay: Cardiovascular telemetry in rats; conditions: telemetered rats

T1 sequence (P08912 whole entry): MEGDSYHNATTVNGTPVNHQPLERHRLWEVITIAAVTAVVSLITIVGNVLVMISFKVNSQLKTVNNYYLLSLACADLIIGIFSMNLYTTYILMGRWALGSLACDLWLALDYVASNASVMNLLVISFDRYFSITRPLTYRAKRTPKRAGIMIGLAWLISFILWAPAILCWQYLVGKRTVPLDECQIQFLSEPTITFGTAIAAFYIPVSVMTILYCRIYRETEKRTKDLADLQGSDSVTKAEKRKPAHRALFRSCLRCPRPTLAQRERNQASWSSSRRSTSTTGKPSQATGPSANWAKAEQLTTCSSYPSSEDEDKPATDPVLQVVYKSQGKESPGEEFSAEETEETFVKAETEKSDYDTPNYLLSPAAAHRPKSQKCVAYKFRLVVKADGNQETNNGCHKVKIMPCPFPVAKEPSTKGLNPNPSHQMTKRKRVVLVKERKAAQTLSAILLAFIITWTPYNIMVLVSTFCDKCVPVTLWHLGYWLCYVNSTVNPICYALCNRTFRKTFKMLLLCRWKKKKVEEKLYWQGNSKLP
T2 sequence (P20309 whole entry): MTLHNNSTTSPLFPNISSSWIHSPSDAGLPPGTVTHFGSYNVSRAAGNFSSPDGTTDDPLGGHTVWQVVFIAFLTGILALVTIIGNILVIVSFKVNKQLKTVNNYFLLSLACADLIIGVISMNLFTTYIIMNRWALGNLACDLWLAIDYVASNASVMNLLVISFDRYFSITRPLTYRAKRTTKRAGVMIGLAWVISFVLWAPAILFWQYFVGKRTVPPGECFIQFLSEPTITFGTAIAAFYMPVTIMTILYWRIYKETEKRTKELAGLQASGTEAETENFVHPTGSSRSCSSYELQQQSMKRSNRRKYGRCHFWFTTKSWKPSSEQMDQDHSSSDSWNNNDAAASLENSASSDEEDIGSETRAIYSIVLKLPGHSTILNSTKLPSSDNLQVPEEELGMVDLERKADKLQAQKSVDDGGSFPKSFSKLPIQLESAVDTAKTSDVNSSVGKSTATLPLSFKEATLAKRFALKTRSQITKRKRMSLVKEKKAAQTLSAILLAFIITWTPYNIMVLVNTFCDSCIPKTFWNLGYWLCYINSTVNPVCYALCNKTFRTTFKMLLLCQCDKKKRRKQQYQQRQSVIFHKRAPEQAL

CCOC(=O)N1CCC[C@H](N2CCC(C(=O)NC3(C)CCC3)CC2)CC1 [HTL9936, ethyl (S)-4-(4-((1-methylcyclobutyl)carbamoyl)piperidin-1-yl)azepane-1-carboxylate]
M5-receptor agonism [1]: no detectable agonism | Binding to the M3-receptor [2]: no detectable binding | EC50 [3]: 2.5 µM | Gq/11 protein-coupling Emax ([3]; cortical membranes, wild-type mice, n = 3): 76 % of the oxotremorine-M response | Gq/11 protein-coupling in M1-receptor KO membranes ([3]; membranes from M1-receptor KO animals): absent | Cmax [4]: 242 ng/mL | Subjects with mild cholinergic responses (salivation, sweating, blood pressure/heart rate changes) ([5]; human SAD, 175 mg cohort): 3/5 | Serious adverse events leading to withdrawal ([5]; human SAD, 1−100mg oral): no serious adverse events | Margin of 242 ng/mL over plasma minimal effective concentration in aged beagle DNMP ([5]; human vs dog 58 ng/mL): about 5 × | Estimated unbound brain exposure at plasma Cmax of 242 ng/mL ([5]; human, from CSF to plasma ratios 1 to 3 h): 72 to 259 nM | Cardiovascular effects at 3 mg/kg ([6]; 3 mg/kg oral): No significant effects | Heart rate and mean arterial blood pressure ([6]; oral 3, 10, 30 and 100 mg/kg, 5 h post-dose average): dose-dependent increase in heart rate and mean arterial blood pressure
